Legend:
[1] = target: T1, 5-hydroxytryptamine receptor 6 (Homo sapiens, UniProt P50406); experiment: Displacement of [3H]LSD from human recombinant 5HT6 receptor
[2] = target: 5-hydroxytryptamine receptor 6 (Rattus norvegicus, UniProt P31388); experiment: Displacement of [3H]LSD from rat recombinant 5HT6 receptor
[3] = target: T1, 5-hydroxytryptamine receptor 6; experiment: Antagonist activity at human 5HT6 receptor expressed in human astrocytoma cells assessed as inhibition of cAMP production; format: functional, cell-based
[4] = tested on: Rattus norvegicus; experiment: Half life in rat at 1 mg/kg, iv; format: ADME, organism-based; design: dose 1 mg/kg, route intravenous; conditions: in vivo
[5] = tested on: Rattus norvegicus; experiment: Volume of distribution in rat at 1 mg/kg, iv; format: ADME, organism-based; design: dose 1 mg/kg, route intravenous; conditions: in vivo
[6] = Oral bioavailability in rat at 5 mg/kg; format: ADME, organism-based; conditions: in vivo
[7] = tested on: Rattus norvegicus; experiment: Ratio of drug uptake in brain to plasma in rat at 5 mg/kg, po

T1 sequence (P50406 whole entry): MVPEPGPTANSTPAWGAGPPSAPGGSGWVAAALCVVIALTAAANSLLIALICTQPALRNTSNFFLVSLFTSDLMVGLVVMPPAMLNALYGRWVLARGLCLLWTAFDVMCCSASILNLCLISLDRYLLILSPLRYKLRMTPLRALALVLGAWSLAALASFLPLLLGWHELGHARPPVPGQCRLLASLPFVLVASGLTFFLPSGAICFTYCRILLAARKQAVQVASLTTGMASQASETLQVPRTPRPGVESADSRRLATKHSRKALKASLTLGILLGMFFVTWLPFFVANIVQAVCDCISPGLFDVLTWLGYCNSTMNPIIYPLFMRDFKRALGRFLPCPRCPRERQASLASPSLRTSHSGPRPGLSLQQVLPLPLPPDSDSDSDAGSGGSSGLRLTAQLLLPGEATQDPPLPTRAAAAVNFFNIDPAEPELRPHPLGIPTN
5-hydroxytryptamine receptor 6 (Rattus norvegicus, UniProt P31388), sequence (P31388 whole entry): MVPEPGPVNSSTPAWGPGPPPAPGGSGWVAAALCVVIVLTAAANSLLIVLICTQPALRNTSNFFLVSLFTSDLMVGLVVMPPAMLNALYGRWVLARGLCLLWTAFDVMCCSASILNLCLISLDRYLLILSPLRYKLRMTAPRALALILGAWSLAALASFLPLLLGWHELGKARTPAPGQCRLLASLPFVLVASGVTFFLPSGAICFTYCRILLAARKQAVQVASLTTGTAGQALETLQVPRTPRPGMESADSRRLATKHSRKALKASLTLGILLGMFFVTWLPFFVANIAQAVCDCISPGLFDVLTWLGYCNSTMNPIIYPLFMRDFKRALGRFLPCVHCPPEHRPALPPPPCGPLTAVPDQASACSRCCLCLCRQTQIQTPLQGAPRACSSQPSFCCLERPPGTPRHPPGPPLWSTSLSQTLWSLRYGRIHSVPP

Compound: COc1cc(OC(C)C)cc(S(=O)(=O)c2ccc3c(c2)O[C@H]2CNCC[C@@H]32)c1.Cl (single isomer, unassigned; enantiomer 2)
- Ki [1]: 12 nM
- Ki [2]: 55 nM
- IC50 [3]: 45 nM
- t1/2 [4]: 24 min
- Vd [5]: 1 L/kg
- bioavailability [6]: 11%
- BPR [7]: 2.29

Source: ChEMBL document CHEMBL1949541, “Discovery of 7-arylsulfonyl-1,2,3,4, 4a,9a-hexahydro-benzo[4,5]furo[2,3-c]pyridines: identification of a potent and selective 5-HT₆ receptor antagonist showing activity in rat social recognition test” (Bioorg Med Chem Lett, 2012)
